# Assay results: ChEMBL document CHEMBL3638480, “Inhibitors” (2013)
# Target: Glutaminyl-peptide cyclotransferase (Homo sapiens, UniProt Q16769)
# Assay: Spectrophotometic Assay: Spectrophotometic Assay: This novel assay was used to determine the kinetic parameters for most of the QC substrates. QC activity was analyzed spectrophotometrically using a continuous method, that was derived by adapting a previous discontinuous assay (Bateman, R.C.J. 1989 J Neurosci Methods 30, 23-28).
# Glutaminyl-peptide cyclotransferase, sequence (Q16769 whole entry): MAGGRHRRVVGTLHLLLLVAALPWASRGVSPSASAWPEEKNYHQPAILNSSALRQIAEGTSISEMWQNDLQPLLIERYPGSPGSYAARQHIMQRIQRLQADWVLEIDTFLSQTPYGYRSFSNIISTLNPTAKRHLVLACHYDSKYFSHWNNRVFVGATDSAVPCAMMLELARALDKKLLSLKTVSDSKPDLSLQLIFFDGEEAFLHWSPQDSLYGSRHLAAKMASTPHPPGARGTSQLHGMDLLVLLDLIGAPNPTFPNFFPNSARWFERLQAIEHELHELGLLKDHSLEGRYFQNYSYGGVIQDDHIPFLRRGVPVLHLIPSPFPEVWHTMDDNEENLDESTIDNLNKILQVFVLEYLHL
row,IC50,Structure (SMILES)
1,< 10 µM,O=C1NCC(c2ccc(N3CCOCC3)c(Cl)c2)N1c1ccc2nc[nH]c2c1 (configuration not stated)
2,< 10 µM,CCOc1ccc(C2CNC(=O)N2c2ccc3[nH]cnc3c2)cc1 (configuration not stated)
3,< 10 µM,O=C1NCC(c2cc(F)cc(C(F)(F)F)c2)N1c1ccc2[nH]cnc2c1 (configuration not stated)
4,< 10 µM,COc1cc(C2CNC(=O)N2c2ccc3[nH]cnc3c2)ccc1F (configuration not stated)
5,< 10 µM,CN1CCC(c2ccc([C@H]3CNC(=O)N3c3ccc4[nH]cnc4c3)cc2)CC1
6,< 10 µM,O=C1OC[C@H](c2cccc(N3CCCCC3)c2)N1c1ccc2[nH]cnc2c1
7,< 10 µM,O=C1NCC(c2ccc(C3CCCCC3)cc2)N1c1ccn2ccnc2c1 (configuration not stated)
8,< 10 µM,CCCOc1ccc(C2CNC(=O)N2c2ccc3[nH]cnc3c2)c(F)c1 (configuration not stated)
9,< 10 µM,O=C1OCC(c2ccc(C3CCC(N4CCOCC4)CC3)cc2)N1c1ccc2[nH]cnc2c1 (configuration not stated)
10,< 10 µM,CCCOc1ccc(C2CN(Cc3ccccc3)C(=O)N2c2ccc3[nH]cnc3c2)cc1 (configuration not stated)
11,< 10 µM,O=C1CCC(c2ccc3c(c2)OCCO3)N1c1ccc2[nH]cnc2c1 (configuration not stated)
12,< 10 µM,O=C1OC[C@H](C2CCCCC2)N1c1ccc2[nH]cnc2c1
13,< 10 µM,O=C1NCC(c2ccc(N3CCCC3)cc2)N1c1ccn2ccnc2c1 (configuration not stated)
14,< 10 µM,O=C1OC[C@H](c2cccc(N3CCOCC3)c2)N1c1ccc2[nH]cnc2c1
15,< 10 µM,O=C1NCC(c2cccc(-c3cccc(Cl)c3)c2)N1c1ccc2[nH]cnc2c1 (configuration not stated)
16,< 10 µM,O=C1NCC(c2ccc(N3CCN(c4ccccc4)CC3)cc2)N1c1ccn2ccnc2c1 (configuration not stated)
17,< 10 µM,O=C1NCC(c2ccc(-c3ccc(Cl)c(Cl)c3)cc2)N1c1ccc2nc[nH]c2c1 (configuration not stated)
18,< 10 µM,CCCOc1ccc([C@H]2COC(=O)N2c2cc(C)c3[nH]cnc3c2)cc1
19,< 10 µM,O=C1NCC(c2ccc(C(F)(F)F)c(F)c2)N1c1ccc2nc[nH]c2c1 (configuration not stated)
20,< 10 µM,O=C1NCC(c2ccc(C(F)(F)F)cc2F)N1c1ccc2[nH]cnc2c1 (configuration not stated)
21,< 10 µM,"CCCOc1ccc([C@H]2OC(=O)N(c3ccc4nc[nH]c4c3)[C@H]2c2ccc(OCCC)cc2)cc1 (single isomer, unassigned)"
22,< 10 µM,O=C1OCC(c2ccc(C3CCC(O)CC3)cc2)N1c1ccc2[nH]cnc2c1 (configuration not stated)
